Results from patent US20020123077A1, “Novel compounds capable of modulating biofilms” (priority 2000, published 2002).

Test system: P. aeruginosa PA14
Test: Potentiation of gentamycin on pre-formed biofilm
Assay type: cell-based, Pseudomonas aeruginosa
Conditions: 9 hr biofilm, M63 + arginine; BIF ~1 μM, Gm 0.1 mg/ml; 14 hours of incubation
Protocol: FIG. 10 is a bar graph showing the ability of purified BIF to potentiate the activity of gentamycin (Gm). A biofilm of P. aeruginosa PA14 was pre-formed by growing the bacteria for 9 hrs in minimal M63 medium supplemented with arginine (0.4%) in 96 well dishes (100 μl of medium per well). After 9 hrs, half of the media was removed and replaced with fresh medium containing Gm (0.1 mg/ml final concentration), BIF (˜1 μM final concentration), or both compounds. The biofilm was quantitated after an additional 14 hrs of incubation.
We predicted that addition of purified BIF might potentiate the effects of antimicrobial compounds. To test this hypothesis, we pre-formed a biofilm of P. aeruginosa by growing the bacteria for 9 hrs by growth in minimal M63 medium supplemented with arginine (0.4%) in 96 well dishes. The preformed biofilms were then treated with BIF alone or BIF plus gentamycin (Gm) at 0.1 mg/ml final concentration. At the concentrations tested, BIF (˜1 μM) and Gm (0.1 mg/ml) had no effect on pre-formed biofilms of P. aeruginosa when these compounds were used individually (FIG. 10).

gentamycin [Gm]
effect on pre-formed biofilms of P. aeruginosa: no effect
